Experimental data as given in US20150309031A2, “COMPOSITIONS AND METHODS FOR PROGNOSIS AND TREATMENT OF CANCER” (NOVAZOI THERANOSTICS, priority 2013, published 2015).

Assays:
Assay type in all cases: cell-based
PC3 cells = test: subG1 (hypodiploid) fraction by flow cytometry, PC3 cells
Description: (§1) Trypsinized cells were resuspended in PBS at 10^6 cells/ml. Cells were then fixed by addition of ice-cold 70% ethanol. Ethanol-fixed cells were kept overnight at 4° C. before staining. Cells were pelleted and washed twice with PBS. Cell pellets were incubated for an hour at room temperature with mouse anti-MPM-2 antibody (Millipore, Mass., USA), followed by 1 h incubation with Alexa-488 anti-mouse secondary antibody (Life Technologies, NY, USA). Finally cells were washed, pelleted and resuspended in propidium iodide-containing isotonic buffer (0.1 mg/mL) and 0.5% Triton X-100. Cell cycle distribution was determined by flow cytometry using an LSR Fortessa Flow cytometer (BD Biosciences, CA, USA) and analyzed using Flowjo software (Tree Star, OR, USA). […] The duration, highest degree, and rapidity of onset of MA varied between drugs, drug concentrations, and cell lines (FIGS. 2A, 2B). In general, the maximum MA achieved was less pronounced in Nos- and PJ-treated cells (FIGS. 2A, 2B). Drug-induced onset of MA was corroborated by substantial increases in cyclin B1 levels in all cell lines (FIG. 2C). […] Instances where the subG1 fraction was elevated without cleaved caspase-3 may either represent caspase-independent cell death or the presence of hypodiploid cells whose fate is unclear.

HeLa cells [1] = test: subG1 (hypodiploid) fraction by flow cytometry, HeLa cells
Description: as §1

[2] = test system: mammary fibrocystic (MCF10A) cells; test: subG1 (hypodiploid) fraction by flow cytometry, MCF10A cells; settings: for change of peak subG1 percent compared to controls (in words): MCF10A cells; for Peak subG1 percent over 48 h: MCF10A
[3] = test system: human dermal fibroblasts (HDFs); test: Centrosome amplification (CA) by microscopy, HDFs; settings: any concentration or time point assessed
Description: (§2) Consequently, CA was assessed in cultures treated with different concentrations of declustering drugs for 6, 12, 18, or 24 h and untreated controls via microscopy. Centrosomes were identified by γ-tubulin and centrin-2 colocalization at discrete foci. […] The peak percent CA detected over 24 h is shown in FIG. 6 (only statistically significant (P<0.05) increases over control values are represented in the Figures). Representative confocal micrographs of CA in interphase and mitotic cells, both control and drug treated, are depicted in FIG. 7. No significant correlations between the degree of CA (FIG. 5A) and the expression levels of PLK4, Cyclin E, and Aurora A were found (FIG. 4).
(§3) To determine whether the CA-inducing activity of declustering drugs is restricted to cancer cells, two non-malignant cell lines, mammary fibrocystic (MCF10A) cells and adult human dermal fibroblasts were treated with these drugs. Neither one of RBN, GF or PJ induced CA or cell death (Table 8) in these cell lines. […] In comparison, 10 and 25 μM RBN increased peak CA over controls in interphase cells (p<0.001 and p=0.001, respectively), with the lower concentration dramatically augmenting peak CA to 56% of cells versus 15% for the higher dose (FIG. 9B). Only 10 but not 25 μM RBN increased the extent of CA in mitotic cells, and this upregulation was only slight (10%, p=0.041).

MDA-MB-231 (231) cells = test: subG1 (hypodiploid) fraction by flow cytometry, 231 cells
Description: as §1

MCF10A cells = test: Centrosome amplification (CA) by microscopy, MCF10A cells; settings: for change of CA over control levels (in words): interphase and mitotic cells, over 24 h
Description: as §2, §3

231 cells = test: Mitotic arrest (MA) by flow cytometry, 231 cells; settings: 10 μM
Description: FIGS. 2A-2C depict mitotic arrest (MA) phenotypes observed upon treatment with putative centrosome declustering drugs. […] Declustering drugs included Nos, BN, RBN, PJ, and GF, all at 10 and 25 μM except GF, which was used at 25 and 50 μM, and cell lines included 231, PC3, and HeLa. […] In general, MA increased from 0 h to a peak near 24 h, followed by a decline in MA that coincided with increases in subG1 fractions. Results are representative of three independent experiments. […] Drugs are ranked in order of increasing peak subG1 from bottom to top along the y axis. […] Increased levels of both cyclins compared with controls (0 h) were detected across cell lines with variable expression patterns depending on the drug and cell line. To evaluate apoptosis, cleaved caspase-3 (C. Caspase-3) was immunoblotted and eventual increases over controls were universally detected, typically by 24 h.
To evaluate the impact of putative declustering drugs on cell cycle progression and hypodiploidy (<2N DNA content, which may indicate apoptotic cells), MDA-MB-231 (231), PC3, and HeLa cells were treated with different concentrations of declustering drugs, stained with propidium iodide, labeled with anti-MPM2 antibody, and then assessed by flow cytometry at multiple time points over 48 h. […]

[4] = test system: adult human dermal fibroblasts (HDF); test: subG1 (hypodiploid) fraction by flow cytometry, HDFs
HeLa cells [5] = test: Centrosome amplification (CA) by microscopy, HeLa cells; settings: interphase, 25 μM
Description: Consequently, CA was assessed in cultures treated with different concentrations of declustering drugs for 6, 12, 18, or 24 h and untreated controls via microscopy. […] The peak percent CA detected over 24 h is shown in FIG. 6 (only statistically significant (P<0.05) increases over control values are represented in the Figures). Representative confocal micrographs of CA in interphase and mitotic cells, both control and drug treated, are depicted in FIG. 7. […] To better understand the “potency” of drug-induced CA with time, the average fold change in CA over controls over 24 h was assessed (FIG. 5A), whereby the extent of CA across time points (i.e., 6, 12, 18, and 24 h) was averaged and then divided by the extent of CA in control (i.e., 0 h). […] For Nos and BN, there was no major difference in CA levels in interphase versus mitotic cells.

[6] = test system: MDA-MB-231 (231), PC3, and HeLa cells; test: Mitotic arrest (MA) by flow cytometry (MPM2/PI), across cell lines; settings: coarse-grained categories
Description: Trypsinized cells were resuspended in PBS at 10^6 cells/ml. Cells were then fixed by addition of ice-cold 70% ethanol. Ethanol-fixed cells were kept overnight at 4° C. before staining. Cells were pelleted and washed twice with PBS. Cell pellets were incubated for an hour at room temperature with mouse anti-MPM-2 antibody (Millipore, Mass., USA), followed by 1 h incubation with Alexa-488 anti-mouse secondary antibody (Life Technologies, NY, USA). Finally cells were washed, pelleted and resuspended in propidium iodide-containing isotonic buffer (0.1 mg/mL) and 0.5% Triton X-100. Cell cycle distribution was determined by flow cytometry using an LSR Fortessa Flow cytometer (BD Biosciences, CA, USA) and analyzed using Flowjo software (Tree Star, OR, USA).
To evaluate the impact of putative declustering drugs on cell cycle progression and hypodiploidy (<2N DNA content, which may indicate apoptotic cells), MDA-MB-231 (231), PC3, and HeLa cells were treated with different concentrations of declustering drugs, stained with propidium iodide, labeled with anti-MPM2 antibody, and then assessed by flow cytometry at multiple time points over 48 h. […] The duration, highest degree, and rapidity of onset of MA varied between drugs, drug concentrations, and cell lines (FIGS. 2A, 2B). In general, the maximum MA achieved was less pronounced in Nos- and PJ-treated cells (FIGS. 2A, 2B). […]

HDFs and MCF10A cells = test: Spindle multipolarity (MP) in non-malignant cell lines

COc1ccc2c(c1OC)C(=O)O[C@@H]2[C@H]1c2c(c(Br)c3c(c2OC)OCO3)CCN1C [BN, 9-bromonoscapine]
Peak subG1 percent over 48 h (PC3 cells; 10 μM): 46.0%
Peak subG1 percent over 48 h (PC3 cells; 25 μM): 42.8%
maximum subG1 fraction relative to control (PC3 cells; 25 μM): 9.2 × control
Peak subG1 percent over 48 h (HeLa cells [1]; 10 μM): 42.0%
Peak subG1 percent over 48 h (HeLa cells [1]; 25 μM): 54.9%
maximum subG1 fraction relative to control (HeLa cells [1]; 25 μM): 4.4 × control
change of peak subG1 percent compared to controls (in words) [2]: did not cause a significant increase in peak subG1 percent compared to controls
Peak subG1 percent over 48 h ([2]; 10 μM): 3.5%
Peak subG1 percent over 48 h ([2]; 25 μM): 3.0%
change of CA over controls (in words) [3]: did not significantly increase the extent of CA over controls
Peak subG1 percent over 48 h (MDA-MB-231 (231) cells; 10 μM): 32.5%
Peak subG1 percent over 48 h (MDA-MB-231 (231) cells; 25 μM): 65.2%
maximum subG1 fraction relative to control (MDA-MB-231 (231) cells; 25 μM): 9.3 × control
change of CA over control levels (in words) (MCF10A cells): neither concentrations of Nos or BN significantly increased CA over control levels
mitotic arrest (in words) (231 cells): did not cause any MA
Peak subG1 percent over 48 h ([4]; 10 μM): 16.5%
Peak subG1 percent over 48 h ([4]; 25 μM): 20.4%

CN(C)CC(=O)Nc1ccc2[nH]c(=O)c3ccccc3c2c1 [PJ, PJ-34]
Peak subG1 percent over 48 h (PC3 cells; 10 μM): 62.4%
Peak subG1 percent over 48 h (PC3 cells; 25 μM): 48.4%
maximum subG1 fraction relative to control (PC3 cells; 25 μM): 7.9 × control
fold increase in peak CA extent, interphase cells (HeLa cells [5]): ~20 fold
peak / final extent of CA in interphase cells (HeLa cells [5]): < 20%
Peak subG1 percent over 48 h (HeLa cells [1]; 10 μM): 48.5%
maximum subG1 fraction relative to control (HeLa cells [1]; 10 μM): 4.8 × control
Peak subG1 percent over 48 h (HeLa cells [1]; 25 μM): 64.4%
change of peak subG1 percent compared to controls (in words) [2]: did not cause a significant increase in peak subG1 percent compared to controls
Peak subG1 percent over 48 h ([2]; 10 μM): 6.9%
Peak subG1 percent over 48 h ([2]; 25 μM): 9.1%
change of CA over controls (in words) [3]: no significant impact on CA in HDFs
Peak subG1 percent over 48 h (MDA-MB-231 (231) cells; 10 μM): 37.0%
Peak subG1 percent over 48 h (MDA-MB-231 (231) cells; 25 μM): 55.0%
maximum subG1 fraction relative to control (MDA-MB-231 (231) cells; 25 μM): 10.4 × control
change of CA over control levels (in words) (MCF10A cells): increased the peak extent of CA in interphase and mitotic cells
peak extent of CA in interphase cells (MCF10A cells; interphase, 10 μM): 8%
mean time to peak MA (MA:TRH) [6]: ~12 h
induction of MP over control levels (HDFs and MCF10A cells): significantly induce MP over control levels
Peak subG1 percent over 48 h ([4]; 10 μM): 13.6%
Peak subG1 percent over 48 h ([4]; 25 μM): 28.2%
